Test results published in PMC2990756, “Quantitative High-Throughput Screening Identifies 8-Hydroxyquinolines as Cell-Active Histone Demethylase Inhibitors” (PLoS ONE, 2010).
Read-outs that look alike come from different tables or passages of the source.

Assays:
Assay type in all cases: biochemical
[1] = target: T1, formaldehyde dehydrogenase (FDH) (Pseudomonas putida, UniProt P46154); experiment: FDH coupling enzyme counterscreen; details: Table S1, FDH counterscreen; for IC50: unit not in table, from Figure 2, read-out: qHTS Data: jmjd2e fdh IC50
T1 construct: purchased Sigma-Aldrich
T1 sequence (P46154 whole entry): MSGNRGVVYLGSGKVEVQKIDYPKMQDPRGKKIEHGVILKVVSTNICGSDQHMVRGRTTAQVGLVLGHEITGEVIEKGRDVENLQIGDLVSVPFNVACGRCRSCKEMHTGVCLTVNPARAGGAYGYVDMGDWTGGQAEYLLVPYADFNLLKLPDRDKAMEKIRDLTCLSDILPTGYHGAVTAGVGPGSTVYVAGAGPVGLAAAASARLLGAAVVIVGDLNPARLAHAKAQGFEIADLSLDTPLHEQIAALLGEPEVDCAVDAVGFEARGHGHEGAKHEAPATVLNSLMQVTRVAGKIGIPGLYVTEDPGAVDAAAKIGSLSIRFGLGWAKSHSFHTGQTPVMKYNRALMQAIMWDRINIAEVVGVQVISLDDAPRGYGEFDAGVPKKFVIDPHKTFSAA
From the text: Dimethylsulfoxide certified ACS grade (DMSO) was from Fisher, Inc. HEPES buffer was obtained from Gibco. […] Black solid-bottom 1,536-well assay plates were from Greiner Bio-One (Monroe, NC).

JMJD2E (KDM4E) = target: T2, JMJD2E (KDM4E) (Homo sapiens, UniProt B2RXH2); experiment: qHTS fluorescence FDH-coupled JMJD2E demethylase assay
T2 construct: The catalytic domain of human JMJD2E (residues 1–337); His6 (N); made in house; host or cells: E. coli
T2 sequence (B2RXH2 1-337): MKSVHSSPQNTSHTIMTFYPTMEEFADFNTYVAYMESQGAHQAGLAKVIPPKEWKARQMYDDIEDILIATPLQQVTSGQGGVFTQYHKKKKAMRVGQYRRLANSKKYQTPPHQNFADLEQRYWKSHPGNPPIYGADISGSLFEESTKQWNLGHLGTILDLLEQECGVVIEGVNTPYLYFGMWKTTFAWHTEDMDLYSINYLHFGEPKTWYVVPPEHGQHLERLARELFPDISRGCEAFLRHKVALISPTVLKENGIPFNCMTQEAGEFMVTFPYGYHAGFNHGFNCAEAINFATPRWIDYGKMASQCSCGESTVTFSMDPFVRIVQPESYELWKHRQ

JMJD2E = target: T3, JMJD2E (Homo sapiens, UniProt B2RXH2); experiment: JMJD2E FDH-coupled assay under low and high iron conditions (iron chelation profile); parameters: The catalytic domain of human JMJD2E (residues 1–337); His6 (N); made in house; host or cells: E. coli; details: Table S1; for IC50: unit not in table, from Figure 2
T3 sequence (B2RXH2 1-337): T2 sequence (B2RXH2 1-337)
Method: The prioritized compounds were also evaluated in the screening assay using two different ferrous ion concentrations (termed high iron and low iron, respectively), in order to assess their propensity for iron chelation.
The ratio of IC50 values under high iron to low iron was calculated for each compound.

[2] = Table S1, unit not in table, from Figure 2, read-out: qHTS Data: jmjd2e IC50
[3] = high iron, head says 20 µM FAS, read-out: qHTS Data: jmjd2e fas20um IC50
[4] = low iron 2.5 µM FAS, read-out: qHTS Data: jmjd2e fas2.5um IC50

Structure (SMILES) | qHTS Data: jmjd2e fdh CurveClass [1] | IC50 (JMJD2E (KDM4E); Figure 3, substituted 8-hydroxyquinolines against JMJD2E, read-out: IC50 /μM (qHTS IC50, FDH-coupled assay)) | IC50 (JMJD2E (KDM4E); [2]) | IC50 (JMJD2E; [3]) | IC50 (JMJD2E; [4]) | IC50 [1] | qHTS Data: jmjd2e fas20um CurveClass (JMJD2E; high iron) | qHTS Data: jmjd2e fas2.5um Curve comment (JMJD2E; low iron 2.5 µM FAS)
Oc1ccc(CNc2ccccc2)c2cccnc12 [compound 842629] | Inactive | 8.9 µM | 8.91 µM | 14.1 µM | 1.26 µM |  |  | 
CCOC(=O)C1CCN(Cc2ccc(O)c3ncccc23)CC1 [compound 850072] | Inconclusive |  | 8.91 µM | 2 µM | 4.47 µM |  |  | 
O=C(NO)c1ccccc1O [compound 855524] | Poor quality curve |  | 10 µM |  | 12.6 µM | 3.55 µM | Inactive | 
Cl.NC(CO)C(=O)NNCc1ccc(O)c(O)c1O (centres unmarked) [compound 855739] | Inactive |  | 2.24 µM | 3.98 µM | 1.78 µM |  |  | 
O=C(O)c1cccc(C(=O)O)n1 [compound 863941] | Inactive |  | 8.91 µM | 7.94 µM | 2.82 µM |  |  | 
CCOC(=O)Cc1csc(-n2sc3ccccc3c2=O)n1 [compound 3716597] | Inactive |  | 10 µM |  | 7.08 µM |  | Inactive | 
Oc1ccc(CN2CCCc3ccccc32)c2cccnc12 [compound 4249321] | Inactive |  | 8.91 µM |  | 1.26 µM |  | Inactive | 
O=C(CC1Sc2ncnn2C1=O)Nc1ccc(Br)cc1 (centres unmarked) [compound 7966079] |  |  | 2.24 µM | 1 µM | 2 µM | 0.28 µM |  | 
COc1ccc(NC(=O)CC2Sc3ncnn3C2=O)cc1 (centres unmarked) [compound 7968088] |  |  | 2 µM | 12.6 µM | 1.78 µM | 0.28 µM |  | 
COc1ccc(N2C(=O)CC(Sc3ncn[nH]3)C2=O)c(OC)c1 (centres unmarked) [compound 7974422] |  |  | 2.82 µM | 35.5 µM | 1.41 µM | 0.32 µM | Poor quality curve | 
O=Cc1ccc(O)c(O)c1 [compound 8139931] | Inactive |  | 4.47 µM |  | 3.55 µM |  | Inactive | 
Cc1cc2c(C(C)C)c(O)c(O)c(C=O)c2c(O)c1-c1c(C)cc2c(C(C)C)c(O)c(O)c(C=O)c2c1O [compound 11112318] |  |  | 7.94 µM | 15.8 µM | 1.12 µM | 31.6 µM |  | 
C[C@@](N)(Cc1ccc(O)c(O)c1)C(=O)O [compound 11112415] | Inactive |  | 4.47 µM | 2 µM | 4.47 µM |  |  | 
C[C@H](N)[C@H](O)c1ccc(O)c(O)c1 [compound 11112447] | Inactive |  | 4.47 µM | 2.24 µM | 3.98 µM |  |  | 
CN(C)[C@H]1C(=O)C(C(=O)NCN[C@@H](CCCCN)C(=O)O)=C(O)[C@]2(O)C(=O)C3=C(O)c4c(O)cccc4[C@@](C)(O)[C@H]3C[C@@H]12 [compound 11112463] | Inactive |  | 8.91 µM | 15.8 µM | 14.1 µM |  |  | 
CN1CC[C@]2(C)c3cc(O)ccc3N(C)[C@@H]12 [compound 11112885] | Inconclusive |  | 2.24 µM | 7.08 µM | 8.91 µM |  |  | 

Structure (SMILES) | qHTS Data: jmjd2e fdh CurveClass [1] | IC50 (JMJD2E (KDM4E); Figure 3, substituted 8-hydroxyquinolines against JMJD2E, read-out: IC50 /μM (qHTS IC50, FDH-coupled assay)) | IC50 (JMJD2E (KDM4E); [2]) | IC50 (JMJD2E; [3]) | IC50 (JMJD2E; [4]) | IC50 [1] | qHTS Data: jmjd2e fas20um CurveClass (JMJD2E; high iron) | qHTS Data: jmjd2e fas2.5um Curve comment (JMJD2E; low iron 2.5 µM FAS)
O=C(O)c1cccnc1C(=O)O [compound 11113416] | Inactive |  | 1.78 µM | 11.2 µM | 7.94 µM |  |  | 
Cc1ccc(N2C(=O)CC(Sc3ncn[nH]3)C2=O)cc1C (centres unmarked) [compound 14726720] |  |  | 1.26 µM |  | 1.41 µM | 0.22 µM | Inactive | 
Cc1ccc(N2C(=O)CC(Sc3ncn[nH]3)C2=O)cc1 (centres unmarked) [compound 14726735] |  |  | 2.51 µM | 31.6 µM | 2 µM | 0.32 µM | Poor quality curve | 
CC(C)c1ccc(N2C(=O)CC(Sc3ncn[nH]3)C2=O)cc1 (centres unmarked) [compound 14726804] |  |  | 1.58 µM | 19.9 µM | 2.51 µM | 0.25 µM | Poor quality curve | 
O=C1CC(Sc2ncn[nH]2)C(=O)N1c1ccccc1 (centres unmarked) [compound 14730480] |  |  | 2.24 µM |  | 2.51 µM | 0.32 µM | Inactive | 
Cc1cc(C(=O)NNC(=S)NC(=O)/C=C/c2ccccc2Cl)n[nH]1 [compound 14736067] | Inactive |  | 7.94 µM |  | 8.91 µM |  | Inactive | 
C=CCc1c(C)nc(C)nc1N/N=C/c1ccccc1O [compound 14741635] | Inactive |  | 3.16 µM |  | 3.16 µM |  | Inactive | 
O=[N+]([O-])c1ccc(O)c(/C=N/Nc2ccc(Cl)nn2)c1 [compound 17416266] | Inactive |  | 5.62 µM |  | 5.62 µM |  | Inactive | 
O=C(NC(=S)NNC(=O)c1ccccc1O)c1ccco1 [compound 17504924] | Poor quality curve |  | 7.08 µM |  | 3.55 µM | 2.82 µM | Inactive | 
COc1ccc(-c2cc(=O)n(CCC#N)[nH]2)cc1 [compound 17508964] | Inactive |  | 1.78 µM | 12.6 µM |  |  |  | Inactive
O=C(CSc1ncn[nH]1)c1cccc([N+](=O)[O-])c1 [compound 17510781] |  |  | 7.94 µM | 14.1 µM | 10 µM | 0.89 µM |  | 
COc1ccccc1NC(=S)NNC(=O)c1nn(C)c(C)c1Br [compound 22404294] | Inactive |  | 7.94 µM | 2.51 µM | 3.98 µM |  |  | 
O=C(OCC1O[C@@H](OC(=O)c2cc(O)c(O)c(O)c2)[C@@H](OC(=O)c2cc(O)c(O)c(O)c2)[C@@H](OC(=O)c2cc(O)c(O)c(O)c2)[C@@H]1OC(=O)c1cc(O)c(O)c(O)c1)c1cc(O)c(O)c(O)c1 (some centres unmarked) [compound 22405492] | Inactive |  | 3.16 µM | 14.1 µM | 1.12 µM |  |  | 
CCN(CC)c1ccc(N=Cc2c(C)[nH]c3ccccc23)cc1 [compound 22412852] | Inactive |  | 0.79 µM | 7.94 µM | 12.6 µM |  |  | Poor quality curve
Cc1ccc(O)c(N=NC2=C(O)CC(C)(C)CC2=O)c1 [compound 22414549] | Inactive |  | 0.56 µM |  | 5.62 µM |  | Inactive | 
